Assay results reported in article PMC10541190 (The Journal of Clinical Investigation, 2023).
“And” between values parts separate entries of the source, which are not always exact repeats. Identical values can stand only once. Like-named read-outs stand apart in the source and are kept apart here.

Experiments:
U-87 MG cells = details: human, 0.37 µM
[1] = tested on: SARS-CoV-2 (USA-WA1/2020); assay: microbe, parasite or virus in culture; type: cell-based; details: for EC50: Severe acute respiratory syndrome coronavirus 2, Vero, 24 h, read-out: SARS-CoV-2 EC50
in vitro [2] = details: African green monkey
VEEV (TC-83) = type: cell-based
in vitro [3] = details: human, U-87 MG cell viability (%)
Huh7 cells = details: human, 0.37 µM
in vitro [4] = details: human, Huh7 cell viability (%)
DENV2 = type: cell-based
[5] = tested on: SARS-CoV-2 (Belgium-GHB-03021); type: cell-based

SMILES | replication of TC-83 (VEEV (TC-83)) | viability at 0.37 µM (in vitro [4]) [%] | viability at 10 µM (in vitro [4]) [%] | EC50 [1] [µM] | replication of DENV2 (DENV2) | CC50 (in vitro [2]) [µM] | viability at 3.33 µM (in vitro [4]) [%] | viability at […] (in vitro [4]) | other results
CS(=O)(=O)CCNCc1ccc(-c2ccc3ncnc(Nc4ccc(OCc5cccc(F)c5)c(Cl)c4)c3c2)o1 [Lapati-nib] |  |  |  |  |  |  |  |  | U-87 MG cell viability (%) (U-87 MG cells): 129.28%; SARS-CoV-2 infection (%) ([1]; 0.25 μM): 46.09% and 52.84% and 47.65%; SARS-CoV-2 infection (%) ([1]; 0.74 μM): 18.11% and 21.05% and 22.00% and 22.88% and 28.58%; SARS-CoV-2 infection (%) ([1]; 2.22 μM): 20.01% and 16.81% and 28.24% and 14.29% and 20.00%; viability at 20 µM (in vitro [2]; Cell viability (%)): 67%
CC(=O)O[C@@H]1C[C@H]2C(C)(C)C(=O)C=C[C@]2(C)[C@H]2CC[C@@]3(C)[C@H](c4ccoc4)OC(=O)[C@H]4O[C@]43[C@@]21C [Gedunin] | dose-dependently inhibited replication | 97.4 | 85 | 1.4 | dose-dependently inhibited replication | > 20 |  |  | viability at 0.37 µM (in vitro [3]): 81.9%; viability at 3.33 µM (in vitro [3]): 79.5%; viability at 10 µM (in vitro [3]): 75.7%; viability at […] (in vitro [3]): 79.1% and 86.8%; Huh7 cell viability (%) (Huh7 cells): 96.29%; Cell viability (%) (Vero cells; 0.625 μM): 106.58% and 104.74%; Cell viability (%) (Vero cells; 1.25 μM): 98.66%; Cell viability (%) (Vero cells; 5 μM): 83.37% and 75.82%; Cell viability (%) (Vero cells; 20 μM): 88.12% and 85.24%; viability at 0.123 µM (in vitro [4]): 97.1%; viability at 1.111 µM (in vitro [4]): 96.9%; viability at 3.333 µM (in vitro [4]): 94.3%; SARS-CoV-2 infection (%) ([1]; 0.625 μM): 97.75% and 70.79% and 84.27%; SARS-CoV-2 infection (%) ([1]; 1.25 μM): 57.30% and 67.42% and 50.56%; SARS-CoV-2 infection (%) ([1]; 5 μM): 0.67% and 1.04% and 1.31%; SARS-CoV-2 infection (%) ([1]; 20 μM): 0.00337%; viability at 0.625 µM (in vitro [2]; Cell viability (%), 0.625 μM): 107%; viability at 1.25 µM (in vitro [2]; Cell viability (%), 1.25 μM): 105%; viability at 5 µM (in vitro [2]; Cell viability (%), 5 μM): 82.9%; viability at 20 µM (in vitro [2]; Cell viability (%)): 86.5%
O=C1NCN(c2ccccc2)C12CCN(CCCC(c1ccc(F)cc1)c1ccc(F)cc1)CC2 [Fluspirilene] |  | 93.4 | 70.9 | 15.2 |  | > 20 | 87.3 | 93.9% and 95.5% | anti-TC-83 and DENV2 activity compared with anti-SARS-CoV-2 activity (VEEV (TC-83)): more potent
COc1ccc2cc1Oc1ccc(cc1)C[C@H]1c3cc(c(OC)cc3CCN1C)Oc1c(OC)c(OC)cc3c1[C@H](C2)N(C)CC3 [Tetrandrine, Berbaman, 6,6',7, 12-tetramethoxy-2,2'-dimethyl-, (1β)-] |  |  | 44 | 1.4 |  | > 20 | 93.9 | 96.8% and 97% | Fluorescence (%area) [5]: 93.6 %area
CC(C)(C)c1cc(C=C(C#N)C#N)cc(C(C)(C)C)c1O [Tyrphostin A9] |  | 101 | 88 | 16.5 |  | > 20 | 89.2 | 90.8% and 98.7% | anti-TC-83 and DENV2 activity compared with anti-SARS-CoV-2 activity (VEEV (TC-83)): more potent; viability at 0.25 µM (in vitro [3]): 96.7%; viability at 0.74 µM (in vitro [3]): 85%; viability at 2.22 µM (in vitro [3]): 85.2%; viability at 6.67 µM (in vitro [3]): 78.3%; viability at 20 µM (in vitro [3]): 70.1%
COc1c(O)cc2oc3cc(O)c(CC=C(C)C)c(O)c3c(=O)c2c1CC=C(C)C [Mangostin, 9H-Xanthen-9-one, 1,3,6-trihydroxy-7-methoxy-2,8-bis (3-methyl-2-butenyl)-] |  |  |  |  |  |  |  |  | Fluorescence (%area) [5]: 102.5 %area
CC(C)(C)NCC(O)c1ccc(O)c(CO)c1 (stereo not shown) [Salbutamol] | minimal to no activity |  |  | > 20 | minimal to no activity | > 20 |  |  | activity against SARS-CoV-2 [1]: minimal to no activity
CC(C)(C)c1cc(/C=C(\C#N)C(N)=S)cc(C(C)(C)C)c1O [Tyrphostin AG 879] | dose-dependently inhibited replication | 100 | 95.1 | 0.6 | dose-dependently inhibited replication | > 20 | 98.8 | 102% and 98.9% | 
O[C@H]1[C@H]2c3cc4c(cc3CN3CCC(=C[C@@H]1O)[C@H]23)OCO4 [Lycorine] | dose-dependently inhibited replication | 93.2 | 66.6 | 0.5 | dose-dependently inhibited replication | > 20 | 68.1 | 82.9% and 95% | viability at 0.37 µM (in vitro [3]): 92.9%; viability at 3.33 µM (in vitro [3]): 67.1%; viability at 10 µM (in vitro [3]): 61.2%; viability at […] (in vitro [3]): 81.7% and 97.3%
